We go through two compounds from patent US20110039873A1, “SUBSTITUTED PYRAZOLO[1,5-a] PYRIDINE COMPOUNDS HAVING MULTI-TARGET ACTIVITY” (priority 2009, published 2011).

As usually defined, the IC50 is the concentration that inhibits the measured activity by half. By Cmax is commonly meant the maximum level reached in the sampled fluid or tissue. One may read the EC50 as the midpoint of the concentration-response curve.

In data set [1] the target is T1, recombinant human phosphodiesterase 10A1 enzyme (Homo sapiens, UniProt Q9Y233).
T1 construct: purchased BPS Biosciences; host or cells: Baculovirus infected Sf9 cells
T1 sequence (Q9Y233 1-779 isoform Q9Y233-1): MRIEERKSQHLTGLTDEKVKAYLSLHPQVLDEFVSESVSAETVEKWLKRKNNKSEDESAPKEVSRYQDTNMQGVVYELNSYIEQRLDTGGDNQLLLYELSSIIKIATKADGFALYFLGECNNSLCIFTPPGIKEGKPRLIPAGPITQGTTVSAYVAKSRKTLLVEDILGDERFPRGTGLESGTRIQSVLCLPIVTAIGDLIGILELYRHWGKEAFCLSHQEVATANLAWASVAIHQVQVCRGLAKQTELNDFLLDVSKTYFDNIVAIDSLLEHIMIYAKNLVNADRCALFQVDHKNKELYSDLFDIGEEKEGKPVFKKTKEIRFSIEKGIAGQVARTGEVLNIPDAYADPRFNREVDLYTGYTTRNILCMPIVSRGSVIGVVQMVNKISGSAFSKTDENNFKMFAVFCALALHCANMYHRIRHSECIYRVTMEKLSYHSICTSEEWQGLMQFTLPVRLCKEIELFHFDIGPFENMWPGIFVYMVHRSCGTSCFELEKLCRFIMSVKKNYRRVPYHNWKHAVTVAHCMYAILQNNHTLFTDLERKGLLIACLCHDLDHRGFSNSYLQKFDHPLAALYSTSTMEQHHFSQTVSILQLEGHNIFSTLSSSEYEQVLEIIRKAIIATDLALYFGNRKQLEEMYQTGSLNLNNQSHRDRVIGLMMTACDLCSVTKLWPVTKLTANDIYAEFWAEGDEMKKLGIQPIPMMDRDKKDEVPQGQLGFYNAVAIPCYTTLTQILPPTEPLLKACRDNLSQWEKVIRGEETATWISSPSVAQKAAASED
Briefly: PDE10 inhibition assay (PDELight). It counts as biochemical. The following applies: for IC50: 1 uM cAMP, read-out: PDE 10 Inhibition (IC50 in μM).

Data set [2] concerns the target T2, catalytic domain of phosphodiesterase 4B enzyme cloned from human brain (Homo sapiens, UniProt Q07343).
T2 construct: the catalytic domain of phosphodiesterase 4B enzyme; purchased Scottish Biomedical
In words: PDE4 inhibition assay (PDELight). In kind it is biochemical. The following applies: for IC50: 5 uM cAMP, read-out: PDE 4 Inhibition (IC50 in μM). The gist of the method: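 Human PDE4B catalytic domain (40 mU/well) incubated with 5 uM cAMP. AMP formed was converted to ATP and measured by luciferase luminescence (PDELight). IC50 derived by nonlinear regression curve fit.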

The nature of data set [3]: Oral pharmacokinetic evaluation. In kind it is in vivo, rat. The following applies: Sprague-Dawley rats; for AUC(0-t) / Cmax / half-life: male, rat, plasma; for AUC(0-t): read-out: Oral PK AUClast; for Cmax: read-out: Oral PK Cmax; for half-life: Sprague-Dawley, po, 15 mg/kg. On the procedure:
Three male Sprague-Dawley rats were dosed orally via gavage with 15 mg/kg of test compound. Serial blood samples were collected from the jugular vein at 5, 15, and 30 min, 1, 3, and 6 hours post dosing. Samples were processed for plasma via centrifugation and plasma samples were stored frozen prior to analysis via a sensitive and specific HPLC/MS/MS method. PK parameters were calculated using WinNonLin (Pharsight).

Another data set relates to JNK kinase. Briefly: Amyloid beta-induced phosphorylation of JNK kinase (FIG. 2). It counts as cell-based. The following applies: neuronal cells stimulated with Amyloid Beta, ELISA. Here is the method: In 96-well plates either human SH-SY5Y neuroblastoma cells at 2.5×10^4 cells/well or E18 rat neuronal cells at 1.5×10^4 cells/well were seeded. To each well the following was added, Amyloid Beta peptide 1-25 (source) at a concentration of 30 uM, retinoic acid (10 uM) and test compounds (0-30 uM) and incubated for 3 hours. Supernatant was discarded and cells were fixed with 4% paraformaldehyde (100 ul/well) for 20 minutes. FACE cell based ELISA assay (Active Motif) was performed specific for quantifying phosphorlyated c-Jun (serine-73).
Neuronal cells were stimulated with Amyloid Beta, the Alzheimer's related peptide, resulting in phosphorylation of JNK kinase as measured by ELISA.
In general terms: An ELISA detects its analyte on a solid surface through an enzyme-linked reagent.

The target in data set [4] is T3, recombinant full length human JNK3 enzyme (Homo sapiens, UniProt P53779).
T3 construct: recombinant full length human JNK2 or JNK3 enzyme; purchased Upstate; host or cells: Sf21 cells
T3 sequence (P53779 whole entry): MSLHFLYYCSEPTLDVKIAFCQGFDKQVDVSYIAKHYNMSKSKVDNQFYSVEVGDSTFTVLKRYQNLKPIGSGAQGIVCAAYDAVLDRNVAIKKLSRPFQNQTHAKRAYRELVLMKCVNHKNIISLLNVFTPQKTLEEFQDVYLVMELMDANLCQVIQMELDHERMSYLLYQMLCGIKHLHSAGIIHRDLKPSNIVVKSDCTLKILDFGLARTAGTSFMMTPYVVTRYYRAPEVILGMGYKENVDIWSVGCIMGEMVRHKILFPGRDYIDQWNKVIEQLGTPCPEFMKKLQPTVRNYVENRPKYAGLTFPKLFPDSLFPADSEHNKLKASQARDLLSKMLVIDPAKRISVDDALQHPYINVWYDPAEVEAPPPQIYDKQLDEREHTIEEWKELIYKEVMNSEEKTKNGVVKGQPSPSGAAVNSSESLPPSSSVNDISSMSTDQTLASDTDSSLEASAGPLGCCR
In words: JNK 3 inhibition assay (ATP depletion, luciferase). In kind it is biochemical. The following applies: for IC50: 10 uM ATP, ATF2 substrate; for JNK-3 inhibition (in words): see Table 2. Here is the method:
In a 96-well plate, recombinant full length human JNK2 or JNK3 enzyme (40 ng) expressed in Sf21 cells (Upstate) was incubated with the substrate ATF2 (3 uM) for 1 hour in the presence of 10 uM ATP. […] The ATP levels were quantified using luciferase with luminescence read on a Victor Light 1420 luminometer. IC50 calculations were plotted using a nonlinear regression curve fit.

The test system of data set [5] is phosphorylated c-Jun (serine-73). Briefly: Phosphorylated c-JUN (6-OHDA), SH-SY5Y. The following applies: Homo sapiens, 50 uM 6-hydroxydopamine, 1.5 hours, read-out: p-cJun 6-OHDA SH-SY5Y (EC50 in μM). In kind it is cell-based. Here is the method: Human SH-SY5Y neuroblastoma cells were cultured in 96-well plates with 2.5×10^4 cells/well and incubated for 48 hours. 6-hydroxydopamine was added at a concentration of 50 uM in the presence or absence of test compounds (0-30 uM) and incubated for 1.5 hours. Supernatant was discarded and cells were fixed with 4% paraformaldehyde (100 ul/well) for 20 minutes. FACE cell based ELISA assay (Active Motif) was performed specific for quantifying phosphorlyated c-Jun (serine-73).

In data set [6] the test system is at least one of JNK 3 or JNK 2 and at least one of PDE 10 or PDE 4. Briefly: Dual inhibition (phosphodiesterase and JNK). It counts as biochemical, human. The following applies: IC50 JNK 3 or JNK 2 less than about 5.00 μM and PDE 10 or PDE 4 less than about 20.0 or 30.0 μM. The method in brief:
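JNK2/JNK3: full-length human enzyme with 3 uM ATF2 and 10 uM ATP for 1 h, ATP depletion by luciferase luminescence. PDE4B catalytic domain with 5 uM cAMP, or PDE10A1 with 1 uM cAMP, 1 h; AMP converted to ATP for luminescence. Compounds 0–30 uM; IC50 by nonlinear regression.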

The subject of data set [7] is phosphorylated c-Jun (serine-73). In words: Phosphorylated c-JUN (A-beta), SH-SY5Y. It counts as cell-based. The following applies: Homo sapiens, Amyloid Beta peptide 30 uM, 3 hours, read-out: p-cJun Abeta SH-SY5Y (EC50 in μM). On the procedure: In 96-well plates either human SH-SY5Y neuroblastoma cells at 2.5×10^4 cells/well or E18 rat neuronal cells at 1.5×10^4 cells/well were seeded. […] Supernatant was discarded and cells were fixed with 4% paraformaldehyde (100 ul/well) for 20 minutes. FACE cell based ELISA assay (Active Motif) was performed specific for quantifying phosphorlyated c-Jun (serine-73).

The subject of data set [8] is Mouse BV-2 microglial cells. Briefly: BV-2 glial cell assay (TNF-α and MCP-1 by Luminex). In kind it is cell-based. The following applies: for EC50: Mus musculus, BV-2, LPS and IFN-γ activated, 20 hours; for inhibiting glial cell activation (TNF-α and/or MCP-1): Table 3. On the procedure:
Mouse BV-2 microglial cells were seeded on 96-well plates at a concentration of 3×10^4 cells/well. Cells were activated with 100 ng/mL LPS and IFN-γ (100 ng/mL) in the presence or absence of test compounds (0-30 uM). Following incubation for 20 hours, cells were spun down and supernatant collected. The supernatant was analyzed via Luminex for the presence of TNF-α and MCP-1.

The next data set is described as follows: Water solubility. It counts as physicochemical. The following applies: defined as at least 10 milligrams per milliliter in water at 25° C. and pH 7.0. Here is the method: By “water soluble” is meant a compound that is soluble in water to an extent of at least 10 milligrams per milliliter in water at 25° C. and a pH 7.0.
For data set [9], the system named is rat chronic constriction injury (CCI) model of neuropathic pain. Briefly: Rat chronic constriction injury (CCI) model of neuropathic pain. In kind it is in vivo.
Data set [10] concerns the target T4, recombinant full length human JNK2 enzyme (Homo sapiens, UniProt P45984).
T4 construct: recombinant full length human JNK2 or JNK3 enzyme; purchased Upstate; host or cells: Sf21 cells
Briefly: JNK 2 inhibition assay (ATP depletion, luciferase). In kind it is biochemical. On the procedure:
In a 96-well plate, recombinant full length human JNK2 or JNK3 enzyme (40 ng) expressed in Sf21 cells (Upstate) was incubated with the substrate ATF2 (3 uM) for 1 hour in the presence of 10 uM ATP. […] IC50 calculations were plotted using a nonlinear regression curve fit.

Setting [11] is: read-out: MCP-1 BV-2 (EC50 in μM).
[12] abbreviates: read-out: TNF-a BV-2 (EC50 in μM).

Each structure is given as a SMILES string. Where two headings read alike, the source gives them in different places. Where only a bound is given, the exact number is not on record here.

T2 sequence (Q07343 330-659 limits assumed): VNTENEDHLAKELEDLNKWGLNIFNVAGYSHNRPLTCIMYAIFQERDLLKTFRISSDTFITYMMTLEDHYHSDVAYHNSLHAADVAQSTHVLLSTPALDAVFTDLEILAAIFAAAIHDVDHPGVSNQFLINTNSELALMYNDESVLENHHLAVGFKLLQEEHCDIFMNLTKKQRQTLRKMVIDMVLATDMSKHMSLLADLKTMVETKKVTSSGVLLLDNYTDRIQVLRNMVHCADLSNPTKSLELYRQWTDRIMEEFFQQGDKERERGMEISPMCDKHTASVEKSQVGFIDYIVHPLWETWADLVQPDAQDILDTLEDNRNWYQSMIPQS
T4 sequence (P45984 whole entry): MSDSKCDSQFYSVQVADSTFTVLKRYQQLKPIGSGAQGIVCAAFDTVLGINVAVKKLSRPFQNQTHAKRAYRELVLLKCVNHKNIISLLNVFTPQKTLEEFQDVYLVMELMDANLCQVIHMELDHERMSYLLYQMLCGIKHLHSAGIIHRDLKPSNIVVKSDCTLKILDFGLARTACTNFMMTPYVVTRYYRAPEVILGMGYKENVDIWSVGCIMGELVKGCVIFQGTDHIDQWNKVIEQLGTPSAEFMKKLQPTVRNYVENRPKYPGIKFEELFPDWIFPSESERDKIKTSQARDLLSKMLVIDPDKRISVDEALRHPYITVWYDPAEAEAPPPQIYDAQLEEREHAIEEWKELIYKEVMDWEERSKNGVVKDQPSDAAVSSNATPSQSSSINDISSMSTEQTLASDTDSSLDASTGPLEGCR

As for `Cc1cccc2c(-c3ccnc(NC4CCCC4)n3)cnn12` [AV1184, N-cyclopentyl-4-(7-methylpyrazolo[1,5-a]pyridin-3-yl)pyrimidin-2-amine], the IC50 was found to be 32 µM in [1], 15.5 µM in data set [2] and 0.4 µM in data set [4]. The AUC(0-t) in data set [3] (15 mg/kg oral gavage) was less than 10 ng·h/mL. Besides, the peak concentration (Cmax) in data set [3] (15 mg/kg oral gavage) is less than 5 ng/mL. Besides, the “inhibition of amyloid beta-induced phosphorylation of JNK kinase” value in the data set with JNK kinase is listed as “capable of inhibiting phosphorylation of JNK kinase in a dose-dependent manner”. Further, the “JNK-3 inhibition (in words)” value in [4] is recorded as “particularly effective”. Besides, the EC50 in data set [5] is 0.7 µM; in data set [7] it was 8.3 µM; in data set [8] (setting [11]) it was 0.9 µM; in data set [8] (setting [12]), 0.3 µM. Further, the “dual inhibition (phosphodiesterase and JNK)” value in data set [6] is reported as “effective dual inhibitors”. Also, in data set [8], the “inhibiting glial cell activation (TNF-α and/or MCP-1)” value is “Particularly effective”.

For `c1ccn2nc(C3CC3)c(-c3ccnc(NC4CC4)n3)c2c1` [AV1200, N-cyclopropyl-4-(2-cyclopropylpyrazolo[1,5-a]pyridin-3-yl)pyrimidin-2-amine], the water soluble entry in the data set “Water solubility” is “water soluble”. The IC50 is 7.7 µM in data set [1]; 2.7 µM in data set [2]; 1.6 µM in data set [10] (10 uM ATP, ATF2 substrate, read-out: JNK 2 Inhibition (IC50 in μM)); 0.01 to 2 µM in data set [10] (read-out: IC50 value based upon a JNK 2 inhibition assay (range given)); 1.9 µM in data set [4]. The “PDE-10 inhibition (in words)” value in data set [1] (Table 2) is listed as “particularly effective”. Moreover, the “PDE-4 inhibition (in words)” value in data set [2] is “particularly effective”. The “IP CCI efficacy (Change in grams)” value in [9] (10 mg/kg) is given as 0 (10 mg/kg); grams; in data set [9] (20 mg/kg), 1.8 (20 mg/kg) grams. For the same compound, the figures for the “PO CCI efficacy (Change in grams)” value in data set [9] (30 mg/kg) and in [9] (60 mg/kg) were 0 (30 mg/kg); grams and 1.25 (60 mg/kg) grams, respectively. The “half life following oral dosing (in words)” value in data set [3] (oral) is “particularly prolonged half lives”. Besides, the half-life is 4.7 h in [3] (15 mg/kg oral gavage, read-out: Oral PK T½ (converted)) and more than 3 h in [3] (oral, read-out: half life following oral dosing). Besides, in data set [3] (15 mg/kg oral gavage), the AUC(0-t) worked out at 1700 ng·h/mL. Besides, the Cmax in data set [3] (15 mg/kg oral gavage) was found to be 420 ng/mL. The “JNK-3 inhibition (in words)” value in data set [4] is “particularly effective”. For the same compound, the “dual inhibition (phosphodiesterase and JNK)” value in data set [6] was “effective dual inhibitors”. Further, the values for the EC50 in data set [8] (setting [11]) and in data set [8] (setting [12]) were 0.3 µM and 1 µM, respectively. For the same compound, the “inhibiting glial cell activation (TNF-α and/or MCP-1)” value in data set [8] is “Particularly effective”.
